From patent US9018216B2, “Solid forms of (R)-2-(5-(2-(3-ethylureido)-6-fluoro-7-(tetrahydrofuran-2-yl)-1H-benzo[d]imidazol-5-yl)pyrimidin-2-yl)propan-2-yl dihydrogen phosphate and salts thereof” (priority 2012, dated 2015) come the findings set out here.

Series [1] is described as follows: Stability of the solid forms (net increase in total impurities at 40 C/30% RH). Format: physicochemical. To be noted: 17 days.
Series [2] concerns Staphylococcus aureus ATCC 29213. The experiment in a line: microbe, parasite or virus in culture. Format: cell-based. The note with it: Staphylococcus aureus, Protocol 1.
Series [3] concerns Enterococcus faecalis ATCC 29212. As to the kind of experiment: Gyrase MIC determination using microdilution broth method (Protocol 1). The class given is cell-based. To be noted: Enterococcus faecalis, ATCC29212, Enterococcus faecalis ATCC 29212, with 3% Laked Horse Blood, read-out: MIC.
In series [4] the test system is Enterococcus faecium ATCC 49624. The description is as above. The class given is cell-based. The note with it: ATCC49624, Enterococcus faecium ATCC 49624 with 3% Laked Horse Blood, read-out: MIC.
The test system of series [5] is Streptococcus pneumoniae ATCC 10015. The series is described as above. Format: cell-based. To be noted: ATCC10015, Streptococcus pneumoniae ATCC 10015, with 3% Laked Horse Blood.
For a further series, the system named is Escherichia coli AG100. As to the kind of experiment: Gyrase MIC determination against Gram negatives using microdilution broth method (Protocol 2). Format: cell-based. To be noted: read-out: MIC. The method, then: Compounds of this invention were tested for antimicrobial activity by susceptibility testing in liquid media. […] The specific protocols used were as follows:
Protocol 2: Gyrase MIC Determination of Compounds Against Gram Negatives Using Microdilution Broth Method
Strains (MHII Media for all; Broth and Agar): • 1. Escherichia coli AG100 WT • 2. Escherichia coli AG100 tolC • 3. […] Haemophilus influenzae Rd0894 (AcrA−)
Inoculum Prep: • 1. Using the BBL Prompt kit, picked 5 big or 10 small, well separated colonies from cultures grown on agar medium and inoculated 1 mL sterile saline that came with the kit. • 2. Vortexed the wells for ˜30 s to give a suspension of ˜10^8 cells/mL. Actual density could be confirmed by plating out dilutions of this suspension. • 3. Diluted the suspension 1/100 by transferring 0.15 mL of cells into 15 mL (˜10^6 cells/mL) sterile broth (see below) for each plate of compounds tested, swirled to mix. […] Used 50 μl cells (˜5×10^4 cells) to inoculate each microtiter well containing 50 μl of the drug diluted in broth (see below).
Drug Dilutions, Inoculation, MIC Determination: • 1. […] Diluted drug/compound stocks to 200× desired final concentration in 50 μL DMSO. If starting concentration of MICs was 8 μg/mL final concentration, then required 6.25 μL of stock+43.75 μL DMSO. Each 200× stock was placed in a separate row of column 1 of a new 96 well microtiter plate. • 3. Added 25 μL of DMSO to columns 2-12 of all rows of the microtiter plate containing 200× compound stocks and serially diluted 25 μL from column 1 through column 11, changed tips after each column. i.e. 25 μL compound+25 μL DMSO=2× dilution. Left “no compound” DMSO well at the end of the series for control. • 4. For each strain tested, prepared two microtiter plates with 50 μL of MHII broth using a Matrix pipettor. • 5. Transferred 0.5 μL of each dilution (w/Matrix auto-pipettor) to 50 μL of medium/microtiter well prior to the addition of 50 μl of cells. The usual starting concentration of compound was 8 μg/mL after the 1/200 dilution into medium+cells−compound concentrations decreased in 2× steps across the rows of a microtiter plate. All MICs were done in duplicate. • 6. All wells were inoculated with 50 μl of diluted cell suspension (see above) to a final volume of 100 μl. • 7. After inoculum was added, each well was mixed thoroughly with a manual multichannel pipettor; same tips were used going from low to high concentration of drug in the same microtiter plate. • 8. Plates were incubated at 37° C. for at least 18 hours. • 9.
Examined the test plates after the correct incubation time and read the MIC endpoint at the concentration where a marked reduction occurred in the appearance of growth on the test plate as compared to that of growth on the positive control plates.

Where two headings read alike, the source gives them in different places.

With `CCNC(=O)Nc1nc2cc(-c3cnc(C(C)(C)OP(=O)([O-])[O-])nc3)c(F)c([C@H]3CCCO3)c2[nH]1.[Na+].[Na+]` [Form X, disodium (R)-2-(5-(2-(3-ethylureido)-6-fluoro-7-(tetrahydrofuran-2-yl)-1H-benzo[d]imidazol-5-yl)pyrimidin-2-yl)propan-2-yl phosphate], in series [1], the “Net % increase in total impurities” value is 0.59%. Also, the MIC in series [2] (ATCC29213, Staphylococcus aureus ATCC 29213 GyrB T173I) is over 16 mg/L; in series [2] (ATCC29213, Staphylococcus aureus ATCC 29213 with 50% Mouse Serum), 2 mg/L; in series [3], 2 mg/L; in series [4] it was 4 mg/L; in series [5], 0.25 mg/L; with Escherichia coli AG100 (Escherichia coli AG100 WT), over 16 mg/L. Also, the MIC in the series on Escherichia coli AG100 (Escherichia coli, AG100, Escherichia coli AG100 tolC) turned out to be 2 mg/L.
